Assay results as given in article PMC9508239 (Nature Communications, 2022).

What was measured:
[1] = test system: IR K484E/L552A; assay: Auto-phosphorylation of IR in 293FT cells expressing IR K484E/L552A; format: cell-based, human; details: 10 nM, 10 min
Description: (§1) For the activation assay, the short isoform of human IR in pCS2-MYC was used as described previously[20],[49]. Plasmid transfections into 293FT cells were performed with Lipofectamin^TM 2000 (Invitrogen).
(§2) The cells were incubated with the lysis buffer B [50 mM Hepes pH 7.4, 150 mM NaCl, 10% Glycerol, 1% Triton X-100, 1 mM EDTA, 100 mM sodium fluoride, 2 mM sodium orthovanadate, 20 mM sodium pyrophosphate, 0.5 mM dithiothreitol (DTT), 2 mM phenylmethylsulfonyl fluoride (PMSF)] supplemented with cOmplete Protease Inhibitor Cocktail (Roche), PhosSTOP (Sigma), and 25 U/ml turbo nuclease (Accelagen) on ice for 1 h. After centrifuging at 20,817×g at 4 °C for 10 min, the concentrations of cell lysate were measured using Micro BCA Protein Assay Kit (Thermo Scientific). About 50–60 μg total proteins were analyzed by SDS-PAGE and quantitative Western blotting. […] For quantitative western blots, anti-rabbit immunoglobulin G (IgG) (H + L) (WB, 1:5000; Dylight 800 conjugates, Cat. #5151) and anti-mouse IgG (H + L) (WB, 1:5000; Dylight 680 conjugates, Cat. #5470) (Cell Signaling) were used as secondary antibodies. […]

[2] = test system: IR R14W; assay: Auto-phosphorylation of IR in 293FT cells expressing IR R14W; format: cell-based, human
Description: as §1, §2

[3] = test system: IR N15K; assay: Auto-phosphorylation of IR in 293FT cells expressing IR N15K; format: cell-based, human
Description: as §1, §2

[4] = test system: IR F497A; assay: Auto-phosphorylation of IR in 293FT cells expressing IR F497A; format: cell-based, human
Description: as §1, §2

[5] = test system: IR F701A/F705A; assay: Auto-phosphorylation of IR in 293FT cells expressing IR F701A/F705A; format: cell-based, human
Description: as §1, §2

[6] = test system: IR; assay: IR signaling (pY IR, pAKT, pERK) in primary mouse hepatocytes (Fig. S9); format: cell-based
Description: Primary hepatocytes were isolated from 2-month-old male mice with a standard two-step collagenase perfusion procedure as described earlier with some modifications[24],[48],[49]. […] After 1–2 s upon the appearance of white spots in the liver, we cut the portal vein with scissors to wash out blood, and then the liver was perfused with 30 ml of Liver Digest Medium (Thermo Scientific, Cat. #17703034). The dissected liver was gently washed with low-glucose DMEM and transferred to a sterile culture dish containing 15 ml Liver Digest Medium. The isolated liver cells were filtered through the 70 μm cell strainer into a 50 ml tube. After centrifuging at 50×g for 5 min at 4 °C, cells were washed with cold low-glucose DMEM three times. […] After 2 h, the medium was changed to serum-free low-glucose DMEM.
as §2

[7] = test system: blood glucose; assay: Insulin tolerance test; format: in vivo, mouse; details: i.p.; Humulin 6 nmol/kg, S597, S20D, W6A, F27A 9 nmol/kg, N20 27 nmol/kg; male mice
Description: Briefly, 2–3 months old male mice were fasted for 2 h and their blood glucose levels (T = 0) were measured with tail bleeding using a glucometer (AlphaTRAK). After then, mice were injected intraperitoneally with Humulin (6 nmol/kg body weight), S597 (9 nmol/kg), S597-S20D (9 nmol/kg), S597-W6A (9 nmol/kg), S597-F27A (9 nmol/kg), or S597-N20 (27 nmol/kg), and their blood glucose levels were measured at the indicated time points after injection.

[8] = test system: blood glucose; assay: Oral glucose tolerance test after chronic treatment; format: in vivo, mouse; parameters: Mean Diff. of blood glucose (OGTT) / blood glucose (OGTT) / Supplementary Figure 10d (area under the OGTT glucose curve): unit not given here; details: for Mean Diff. of blood glucose (OGTT), PBS vs. treatment: PBS minus treatment, Tukey's multiple comparisons test; for Mean Diff. of blood glucose (OGTT): Dunnett's multiple comparisons test; for Supplementary Figure 10d (area under the OGTT glucose curve): time 0-120
Description: For the oral glucose tolerance test, mice were fasted for 6 h and their blood glucose levels (T = 0) were measured with tail bleeding using a glucometer (AlphaTRAK). After then, glucose (2 g/kg body weight) was administered by oral gavage. Blood glucose levels were measured at the indicated time points after glucose administration. For Fig. S10f, 2 months old male mice were fasted for 14 h. […] One hour later, livers were collected.

“insulin: native IR ligand used as comparator; Humulin in the in vivo tests” was tested, and the IR activation [1] was “could not be activated efficiently”, the IR activation [2] was “reduced insulin-dependent IR activation” and the IR activation [3] was “reduced insulin-dependent IR activation”. The IR activation [4] was “can be activated by insulin but with lesser efficiency than IR WT”, the IR activation [5] was “reduced insulin-dependent IR activation” and the “phosphorylation of AKT, primary hepatocytes” value [6] was “increased the levels of pY IR, pAKT, and pERK similarly”. For the same substance, the “phosphorylation of ERK, primary hepatocytes” value [6] was “increased the levels of pY IR, pAKT, and pERK similarly”, the “phosphorylation of IR, primary hepatocytes” value [6] was “increased the levels of pY IR, pAKT, and pERK similarly” and the blood glucose lowering [7] was “significantly reduced”. For the same substance, the “Mean Diff. of blood glucose (OGTT), PBS vs. treatment” value ([8]; Row 1 (time 0)) was -8, the “Mean Diff. of blood glucose (OGTT)” value ([8]; Row 1 vs. Row 2 (time 0 minus time 15)) was -254.8 and the “Mean Diff. of blood glucose (OGTT)” value ([8]; Row 1 vs. Row 3 (time 0 minus time 30)) was -168.8. For the same substance, the “Mean Diff. of blood glucose (OGTT)” value ([8]; Row 1 vs. Row 4 (time 0 minus time 60)) was -60, the “Mean Diff. of blood glucose (OGTT)” value ([8]; Row 1 vs. Row 5 (time 0 minus time 120)) was -35.2 and the “Mean Diff. of blood glucose (OGTT), PBS vs. treatment” value ([8]; Row 2 (time 15)) was -66.2. For the same substance, the “Mean Diff. of blood glucose (OGTT), PBS vs. treatment” value ([8]; Row 3 (time 30)) was -9, the “Mean Diff. of blood glucose (OGTT), PBS vs. treatment” value ([8]; Row 4 (time 60)) was 1 and the “Mean Diff. of blood glucose (OGTT), PBS vs. treatment” value ([8]; Row 5 (time 120)) was -9.8. The “Supplementary Figure 10d (area under the OGTT glucose curve)” value (“Supplementary Figure 10d” for short) ([8]; mouse 1) was 37808, the “Supplementary Figure 10d” value ([8]; mouse 2) was 37043 and the “Supplementary Figure 10d” value ([8]; mouse 3) was 31785. The “Supplementary Figure 10d” value ([8]; mouse 4) was 39735, the “Supplementary Figure 10d” value ([8]; mouse 5) was 46950 and the “blood glucose (OGTT)” value ([8]; time 0, mouse 1) was 197. The “blood glucose (OGTT)” value ([8]; time 0, mouse 2) was 199, the “blood glucose (OGTT)” value ([8]; time 0, mouse 3) was 224 and the “blood glucose (OGTT)” value ([8]; time 0, mouse 4) was 245. For the same substance, the “blood glucose (OGTT)” value ([8]; time 0, mouse 5) was 272, the “blood glucose (OGTT)” value ([8]; time 15, mouse 1) was 530 and the “blood glucose (OGTT)” value ([8]; time 15, mouse 2) was 406. The “blood glucose (OGTT)” value ([8]; time 15, mouse 3) was 488, the “blood glucose (OGTT)” value ([8]; time 15, mouse 4) was 463 and the “blood glucose (OGTT)” value ([8]; time 15, mouse 5) was 524. For the same substance, the “blood glucose (OGTT)” value ([8]; time 30, mouse 1) was 434, the “blood glucose (OGTT)” value ([8]; time 30, mouse 2) was 354 and the “blood glucose (OGTT)” value ([8]; time 30, mouse 3) was 258. For the same substance, the “blood glucose (OGTT)” value ([8]; time 30, mouse 4) was 409, the “blood glucose (OGTT)” value ([8]; time 30, mouse 5) was 526 and the “blood glucose (OGTT)” value ([8]; time 60, mouse 1) was 273. For the same substance, the “blood glucose (OGTT)” value ([8]; time 60, mouse 2) was 303, the “blood glucose (OGTT)” value ([8]; time 60, mouse 3) was 206 and the “blood glucose (OGTT)” value ([8]; time 60, mouse 4) was 300. For the same substance, the “blood glucose (OGTT)” value ([8]; time 60, mouse 5) was 355, the “blood glucose (OGTT)” value ([8]; time 120, mouse 1) was 211 and the “blood glucose (OGTT)” value ([8]; time 120, mouse 2) was 262. The “blood glucose (OGTT)” value ([8]; time 120, mouse 3) was 257, the “blood glucose (OGTT)” value ([8]; time 120, mouse 4) was 275 and the “blood glucose (OGTT)” value ([8]; time 120, mouse 5) was 308.
